US20130158024A1, “TRICYCLIC NECROSTATIN COMPOUNDS” (priority 2005, published 2013)

What was measured:
[1] = test system: SH-SY5Y cells; test: Amyloid-beta 25-35 toxicity in SH-SY5Y cells in the presence of zVAD, ATP assay; assay type: cell-based, human; settings: 100 μM amyloid-beta 25-35, zVAD 100 μM, compound 30 μM, 72 hours
Method: (§1) FIG. 35A is a graph showing the results of treating SH-SY5Y cells with 1 mM MPP+ in the presence of zVAD (100 μM) and compound (19) (30 μM) for 72 hours. Cell viability was determined using an ATP assay. FIG. 35B is a graph as in FIG. 35A, in which cells were treated in the presence of 100 μM amyloid-beta 25-35 protein rather than MPP+.
To further verify that (19) can protect neuronal cells from necrosis, it was tested using two different neurotoxins in the human neuroblastoma cell line SH-SY5Y in the presence of zVAD. Cell death was induced by β-amyloid, a cellular model of Alzheimer's disease, and […] (MPP+), a cellular model of Parkinson's disease.

[2] = test system: SH-SY5Y cells; test: MPP+ cytotoxicity in SH-SY5Y neuroblastoma cells in the presence of zVAD, ATP assay; assay type: cell-based, human; settings: zVAD 100 μM, compound 30 μM, 72 hours
Method: FIG. 15 is a chart showing that necrostatins attenuate MPP^+ cytotoxicity in human SH-SY5Y neuroblastoma cells. Cells were treated with 5 mM MPP^+ in the presence or absence of 100 μM zVAD.fmk and 30 μM necrostatins for 72 hours, followed by an ATP assay. Values represent cell viability normalized to the corresponding compound treated controls not treated with MPP^+.
as §1

[3] = test system: Jurkat T cells; test: Necrosis (CICD) of Jurkat T cells induced by Fas ligand, cycloheximide and zVAD, ATP assay; assay type: cell-based, human; settings: FasL/CHX/zVAD
Method: Jurkat cells were treated with 5 ng/ml of FasL without (A) or with cyclohexamide (CHX) (B) to induce apoptosis, or 5 ng/ml FasL, 1 μg/ml of CHX and 100 μM of zVAD.fmk to induce CICD (B). […] Cell viability was determined after 24 hours of incubation with indicated reagents using CellTiter-Glo ATP assay. The values represent viability relative to the control Jurkat cells without the treatment of FasL, which was set as 100% viability.
FIG. 34A is a graph showing the results of treating Jurkat T cells with Fas ligand (5 ng/ml), cyclohexamide (1 μg/ml) and zVAD (100 μM) in the presence of the indicated amounts of anti-necrotic compounds (4) and (5). Viability was determined 36 hours later using an ATP assay. The viability values are relative to the samples lacking Fas ligand, which were used as 100% viability controls. FIG. 34B is a graph as in FIG. 34A, in which the anti-necrotic compounds are (19) and (20).
Compounds were also tested in another necrosis assay utilizing human Jurkat T cells, Fas ligand to induce cell death, and zVAD to inhibit the apoptosis pathway. After 36 hours, cell viability was measure by the commercial CellTiter ATP cell viability assay (Promega).

[4] = test system: Jurkat cells expressing dimerizable FADD; settings: Homo sapiens, Jurkat, 36 h
[5] = test system: Jurkat cells expressing dimerizable FADD; test: Toxicity of compound alone in Jurkat cells expressing dimerizable FADD (no dimerizer); settings: compound in the absence of dimerizer

| SMILES | reduction of β-amyloid toxicity in SH-SY5Y, in words [1] | attenuation of MPP+ cytotoxicity, in words [2] | inhibition of CICD/necrosis of Jurkat cells, in words [3] | EC50 [4] [µM] | LD50 [5] [µM] |
| --- | --- | --- | --- | --- | --- |
| COc1ccc([C@H]2[C@H]3CCc4ccc(OC)cc4C3=NN2C(C)=O)cc1 (relative stereo) [Compound 141, (3R,3aR)-rel-2-acetyl-3,3a,4,5-tetrahydro-3-(4-methoxyphenyl)-8-methoxy-2H-benz[g]indazole] | effective in reducing toxicity as measured by cellular ATP levels | effective in reducing toxicity as measured by cellular ATP levels | efficiently inhibit necrosis and result in high cell viability |  |  |
| Cc1cc(O)c(C(=O)/C=C/c2ccc(O)c([N+](=O)[O-])c2)c(=O)o1 [Nec-2] |  | especially pronounced in case of Nec-2 |  | 27.3 | 134 |
